The NIST ThermoML archive (doi:10.1021/je5007696)
± gives the expanded uncertainty stated by the source.

Assay: refractive index (Na D-line) (dimensionless); xn = mol fraction of the nth substance listed
Conditions: 100 kPa, Liquid, Standard Abbe refractometry

## CCC(C)=O [butanone] + CCCCO
288.15 K, x1 = 0.0997
  refractive index: 1.39943 ± 0.00036
288.15 K, x1 = 0.1999
  refractive index: 1.3975 ± 0.00037
288.15 K, x1 = 0.3003
  refractive index: 1.39558 ± 0.00037
288.15 K, x1 = 0.4008
  refractive index: 1.39362 ± 0.00037
288.15 K, x1 = 0.5003
  refractive index: 1.39169 ± 0.00038
288.15 K, x1 = 0.6001
  refractive index: 1.38971 ± 0.00038
288.15 K, x1 = 0.6992
  refractive index: 1.38771 ± 0.00039
288.15 K, x1 = 0.7991
  refractive index: 1.38569 ± 0.00039
288.15 K, x1 = 0.899
  refractive index: 1.38364 ± 0.0004
288.15 K, x1 = 1
  refractive index: 1.38153 ± 0.0004
293.15 K, x1 = 0.0997
  refractive index: 1.39733 ± 0.00036
293.15 K, x1 = 0.1999
  refractive index: 1.39533 ± 0.00037
293.15 K, x1 = 0.3003
  refractive index: 1.39333 ± 0.00037
293.15 K, x1 = 0.4008
  refractive index: 1.39131 ± 0.00037
293.15 K, x1 = 0.5003
  refractive index: 1.38933 ± 0.00038
293.15 K, x1 = 0.6001
  refractive index: 1.38729 ± 0.00038
293.15 K, x1 = 0.6992
  refractive index: 1.38525 ± 0.00039
293.15 K, x1 = 0.7991
  refractive index: 1.38316 ± 0.00039
293.15 K, x1 = 0.899
  refractive index: 1.38108 ± 0.0004
293.15 K, x1 = 1
  refractive index: 1.37892 ± 0.0004
298.15 K, x1 = 0.0997
  refractive index: 1.39524 ± 0.00036
298.15 K, x1 = 0.1999
  refractive index: 1.39315 ± 0.00037
298.15 K, x1 = 0.3003
  refractive index: 1.39107 ± 0.00037
298.15 K, x1 = 0.4008
  refractive index: 1.38899 ± 0.00037
298.15 K, x1 = 0.5003
  refractive index: 1.38696 ± 0.00038
298.15 K, x1 = 0.6001
  refractive index: 1.38486 ± 0.00038
298.15 K, x1 = 0.6992
  refractive index: 1.38276 ± 0.00039
298.15 K, x1 = 0.7991
  refractive index: 1.38062 ± 0.00039
298.15 K, x1 = 0.899
  refractive index: 1.37849 ± 0.0004
298.15 K, x1 = 1
  refractive index: 1.37631 ± 0.0004
303.15 K, x1 = 0.0997
  refractive index: 1.3931 ± 0.00036
303.15 K, x1 = 0.1999
  refractive index: 1.39095 ± 0.00037
303.15 K, x1 = 0.3003
  refractive index: 1.38882 ± 0.00037
303.15 K, x1 = 0.4008
  refractive index: 1.38669 ± 0.00037
303.15 K, x1 = 0.5003
  refractive index: 1.38457 ± 0.00038
303.15 K, x1 = 0.6001
  refractive index: 1.38241 ± 0.00038
303.15 K, x1 = 0.6992
  refractive index: 1.38025 ± 0.00039
303.15 K, x1 = 0.7991
  refractive index: 1.37807 ± 0.00039
303.15 K, x1 = 0.899
  refractive index: 1.37589 ± 0.0004
303.15 K, x1 = 1
  refractive index: 1.37366 ± 0.0004
308.15 K, x1 = 0.0997
  refractive index: 1.39096 ± 0.00036
308.15 K, x1 = 0.1999
  refractive index: 1.38872 ± 0.00037
308.15 K, x1 = 0.3003
  refractive index: 1.38651 ± 0.00037
308.15 K, x1 = 0.4008
  refractive index: 1.38433 ± 0.00037
308.15 K, x1 = 0.5003
  refractive index: 1.38215 ± 0.00038
308.15 K, x1 = 0.6001
  refractive index: 1.37995 ± 0.00038
308.15 K, x1 = 0.6992
  refractive index: 1.37775 ± 0.00039
308.15 K, x1 = 0.7991
  refractive index: 1.37551 ± 0.00039
308.15 K, x1 = 0.899
  refractive index: 1.3733 ± 0.0004
308.15 K, x1 = 1
  refractive index: 1.37102 ± 0.0004
313.15 K, x1 = 0.0997
  refractive index: 1.38881 ± 0.00036
313.15 K, x1 = 0.1999
  refractive index: 1.38649 ± 0.00037
313.15 K, x1 = 0.3003
  refractive index: 1.38421 ± 0.00037
313.15 K, x1 = 0.4008
  refractive index: 1.38196 ± 0.00037
313.15 K, x1 = 0.5003
  refractive index: 1.37973 ± 0.00038
313.15 K, x1 = 0.6001
  refractive index: 1.37748 ± 0.00038
313.15 K, x1 = 0.6992
  refractive index: 1.37522 ± 0.00039
313.15 K, x1 = 0.7991
  refractive index: 1.37293 ± 0.00039
313.15 K, x1 = 0.899
  refractive index: 1.37065 ± 0.0004
313.15 K, x1 = 1
  refractive index: 1.36834 ± 0.0004
318.15 K, x1 = 0.0997
  refractive index: 1.38664 ± 0.00036
318.15 K, x1 = 0.1999
  refractive index: 1.38427 ± 0.00037
318.15 K, x1 = 0.3003
  refractive index: 1.38192 ± 0.00037
318.15 K, x1 = 0.4008
  refractive index: 1.37958 ± 0.00037
318.15 K, x1 = 0.5003
  refractive index: 1.37728 ± 0.00038
318.15 K, x1 = 0.6001
  refractive index: 1.37496 ± 0.00038
318.15 K, x1 = 0.6992
  refractive index: 1.37265 ± 0.00039
318.15 K, x1 = 0.7991
  refractive index: 1.37031 ± 0.00039
318.15 K, x1 = 0.899
  refractive index: 1.36798 ± 0.0004
318.15 K, x1 = 1
  refractive index: 1.36565 ± 0.0004
323.15 K, x1 = 0.0997
  refractive index: 1.38447 ± 0.00036
323.15 K, x1 = 0.1999
  refractive index: 1.38203 ± 0.00037
323.15 K, x1 = 0.3003
  refractive index: 1.37959 ± 0.00037
323.15 K, x1 = 0.4008
  refractive index: 1.37718 ± 0.00037
323.15 K, x1 = 0.5003
  refractive index: 1.3748 ± 0.00038
323.15 K, x1 = 0.6001
  refractive index: 1.37244 ± 0.00038
323.15 K, x1 = 0.6992
  refractive index: 1.37008 ± 0.00039
323.15 K, x1 = 0.7991
  refractive index: 1.36769 ± 0.00039
323.15 K, x1 = 0.899
  refractive index: 1.36531 ± 0.0004
323.15 K, x1 = 1
  refractive index: 1.36294 ± 0.0004
